Test results reported in patent US20230382949A1 (HEPTARES THERAPEUTICS LIMITED, priority 2020, published 2023).
Like-named read-outs stand apart in the source and are kept apart here. Starred links: 1 amine or outer side, 2 acyl side, 3 side chain; linkers in the order of their positions; H or OH if unused. Non-standard residues stand in square brackets, D forms with d. Residues, ends and D or L forms follow the SMILES beside them. *: point of attachment. Ala(piperidin-4-yl) = O=C([C@H](CC1CCN([*:3])CC1)N[*:1])[*:2]; Malonyl(2,2-Me2,histaminyl) = CC(C)(C(=O)NCCc1cnc[nH]1)C(=O)*; dBip = N[C@H](Cc1ccc(-c2ccccc2)cc1)C(=O)O; Oic = O=C(O)[C@@H]1C[C@@H]2CCCC[C@@H]2N1; Phe(4-Br) = N[C@@H](Cc1ccc(Br)cc1)C(=O)O; dPhe(4-Br) = N[C@H](Cc1ccc(Br)cc1)C(=O)O; X4 = CC(C)(C(=O)NCCCc1cnc[nH]1)C(=O)*; NMeH = CN[C@@H](Cc1c[nH]cn1)C(=O)O; X1 = CC(C)(C(=O)NCCc1ccccc1)C(=O)*; X3 = CC(C)(C(=O)NCCc1ccccn1)C(=O)*; hArg = N=C(N)NCCCC[C@H](N)C(=O)O; dCha = N[C@H](CC1CCCCC1)C(=O)O; Aib = CC(C)(N)C(=O)O; Bn = c1ccc(C*)cc1

Experiments:
human Apelin receptor [1] = target: T1, human Apelin receptor (Homo sapiens, UniProt P35414); assay: cAMP accumulation assay (HTRF), functional agonism of human Apelin receptors; assay type: cell-based; conditions: for Emax: CHO
T1 sequence (P35414 1-380): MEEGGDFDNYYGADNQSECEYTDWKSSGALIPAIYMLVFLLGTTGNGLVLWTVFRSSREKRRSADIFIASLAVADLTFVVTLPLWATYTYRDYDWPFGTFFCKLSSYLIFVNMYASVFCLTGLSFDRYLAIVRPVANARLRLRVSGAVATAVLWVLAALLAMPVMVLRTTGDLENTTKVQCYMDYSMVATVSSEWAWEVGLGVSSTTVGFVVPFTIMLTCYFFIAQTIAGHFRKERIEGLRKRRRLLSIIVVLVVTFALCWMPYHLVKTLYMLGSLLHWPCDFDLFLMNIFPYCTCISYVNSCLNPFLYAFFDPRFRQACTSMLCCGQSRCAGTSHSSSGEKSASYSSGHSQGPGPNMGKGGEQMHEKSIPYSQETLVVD
Source text: cAMP functional assay. cAMP production was quantified using the Homogeneous Time-Resolved Fluorescence (HTRF) cAMP dynamic-2 assay (Cisbio, France).

human Apelin receptor [2] = target: T2, human Apelin receptor (Homo sapiens, UniProt P35414); assay: β-arrestin accumulation assay, functional agonism of human Apelin receptors; assay type: cell-based
T2 construct: host or cells: CHO-K1 cells
Procedure, shortened: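 After 16 h at 37° C., cells were exposed to increasing agonist concentrations in serum-free medium for 90 min at 37° C. Detection reagent added for 60 min in the dark; receptor activation read by fluorescence and EC50 derived from concentration-response curves.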
T2 sequence (P32121 whole entry partner, one chain of several): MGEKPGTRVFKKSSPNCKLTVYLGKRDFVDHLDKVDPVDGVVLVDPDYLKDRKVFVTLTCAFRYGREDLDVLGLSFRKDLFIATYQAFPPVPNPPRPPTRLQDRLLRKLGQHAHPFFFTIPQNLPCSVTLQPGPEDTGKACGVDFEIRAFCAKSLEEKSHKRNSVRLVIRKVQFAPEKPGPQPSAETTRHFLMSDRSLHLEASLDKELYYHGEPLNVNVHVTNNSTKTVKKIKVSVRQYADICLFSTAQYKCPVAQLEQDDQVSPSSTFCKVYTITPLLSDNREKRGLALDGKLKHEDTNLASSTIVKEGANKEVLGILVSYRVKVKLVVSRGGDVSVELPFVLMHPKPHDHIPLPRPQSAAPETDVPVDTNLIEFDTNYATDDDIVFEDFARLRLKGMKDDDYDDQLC

[3] = Human Apelin agonist cAMP assay, CHO cells stably expressing the human Apelin receptor, 3 uM forskolin
[4] = pEC50, Human Apelin agonist cAMP assay, CHO cells stably expressing the human Apelin receptor, 3 uM forskolin

Row | Compound | Emax (human Apelin receptor [1]; [3]) [%] | EC50 (human Apelin receptor [1]; [4]) [µM] | EC50 (human Apelin receptor [2]) [µM] | Emax (human Apelin receptor [1]; read-out: Emax) [%] | EC50 (human Apelin receptor [1]; read-out: pEC50 (converted)) [µM]
1 | CC(C)C[C@H](NC(=O)[C@@H](CCCNC(=N)N)NC(=O)[C@@H]1CCCN1C(=O)[C@H](CCCCNC(=N)N)NC(=O)[C@H](CCC(N)=O)NC(=O)[C@@H](CCCNC(=N)N)NC(=O)C(C)(C)C(=O)NCCCc1cnc[nH]1)C(=O)NC(C)(C)C(=O)N[C@@H](Cc1c[nH]cn1)C(=O)N[C@@H](CC1CCNCC1)C(=O)NCC(=O)N1[C@H](C(=O)N[C@@H](Cc2ccc(Br)cc2)C(=O)N2CCC[C@H]2C(=O)N[C@H](Cc2ccc(-c3ccccc3)cc2)C(=O)O)C[C@@H]2CCCC[C@@H]21 [Example 36] (X4-[dR]Q[hArg]P[dR]L[Aib]H[Ala(piperidin-4-yl)]G[Oic][Phe(4-Br)]P[dBip]-OH) | 55.7 | 0.00501 | > 100 | – | –
2 | CC(C)C[C@H](NC(=O)[C@@H](CCCNC(=N)N)NC(=O)[C@@H]1CCCN1C(=O)[C@H](CCCCNC(=N)N)NC(=O)[C@H](CCC(N)=O)NC(=O)C(C)(C)C(=O)NCCc1cnc[nH]1)C(=O)N[C@H](C)C(=O)N[C@@H](Cc1c[nH]cn1)C(=O)N[C@@H](CC1CCNCC1)C(=O)NCC(=O)N1[C@H](C(=O)N[C@@H](Cc2ccc(Br)cc2)C(=O)N2CCC[C@H]2C(=O)N[C@H](Cc2ccc(-c3ccccc3)cc2)C(=O)O)C[C@@H]2CCCC[C@@H]21 [Example 38] ({Malonyl(2,2-Me2,histaminyl)}-Q[hArg]P[dR]L[dA]H[Ala(piperidin-4-yl)]G[Oic][Phe(4-Br)]P[dBip]-OH) | 27.9 | 0.0316 | > 10 | – | –
3 | CC(C)C[C@H](NC(=O)[C@@H](CCCNC(=N)N)NC(=O)[C@@H]1CCCN1C(=O)[C@H](CCCCNC(=N)N)NC(=O)[C@H](CCC(N)=O)NC(=O)C(C)(C)C(=O)NCCc1cnc[nH]1)C(=O)NC(C)(C)C(=O)N[C@@H](Cc1c[nH]cn1)C(=O)N[C@@H](CC1CCNCC1)C(=O)NCC(=O)N1[C@H](C(=O)N[C@@H](Cc2ccc(Br)cc2)C(=O)N2CCC[C@H]2C(=O)N[C@H](Cc2ccc(-c3ccccc3)cc2)C(=O)O)C[C@@H]2CCCC[C@@H]21 [Example 39] ({Malonyl(2,2-Me2,histaminyl)}-Q[hArg]P[dR]L[Aib]H[Ala(piperidin-4-yl)]G[Oic][Phe(4-Br)]P[dBip]-OH) | 62.1 | 0.0316 | > 10 | – | –
4 | CC(C)C[C@H](NC(=O)[C@H](CCCNC(=N)N)NC(=O)[C@@H]1CCCN1C(=O)[C@@H](CCCNC(=N)N)NC(=O)[C@H](CCC(N)=O)NC(=O)C(C)(C)C(=O)NCCc1cnc[nH]1)C(=O)NC(C)(C)C(=O)N[C@@H](Cc1c[nH]cn1)C(=O)N[C@@H](CC1CCNCC1)C(=O)NCC(=O)N1[C@H](C(=O)N[C@@H](Cc2ccc(Br)cc2)C(=O)N2CCC[C@H]2C(=O)N[C@H](Cc2ccc(-c3ccccc3)cc2)C(=O)O)C[C@@H]2CCCC[C@@H]21 [Example 40] ({Malonyl(2,2-Me2,histaminyl)}-Q[dR]PRL[Aib]H[Ala(piperidin-4-yl)]G[Oic][Phe(4-Br)]P[dBip]-OH) | 84.8 | 0.0251 | > 10 | – | –
5 | CC(C)C[C@H](NC(=O)[C@H](CCCNC(=N)N)NC(=O)[C@@H]1CCCN1C(=O)[C@@H](CCCNC(=N)N)NC(=O)[C@H](CCC(N)=O)NC(=O)C(C)(C)C(=O)NCCc1cnc[nH]1)C(=O)NC(C)(C)C(=O)N[C@@H](Cc1c[nH]cn1)C(=O)N[C@@H](CC1CCNCC1)C(=O)NCC(=O)N1[C@H](C(=O)N[C@@H](Cc2ccc(Br)cc2)C(=O)N2CCC[C@H]2C(=O)N[C@H](Cc2ccc(Br)cc2)C(=O)O)C[C@@H]2CCCC[C@@H]21 [Example 41] ({Malonyl(2,2-Me2,histaminyl)}-Q[dR]PRL[Aib]H[Ala(piperidin-4-yl)]G[Oic][Phe(4-Br)]P[dPhe(4-Br)]-OH) | – | – | > 10 | 46.1 | 0.0501
6 | CC(C)C[C@H](NC(=O)[C@H](CCCNC(=N)N)NC(=O)[C@@H]1CCCN1C(=O)[C@@H](CCCNC(=N)N)NC(=O)[C@H](CCC(N)=O)NC(=O)C(C)(C)C(=O)NCCc1cnc[nH]1)C(=O)NC(C)(C)C(=O)N[C@@H](Cc1c[nH]cn1)C(=O)N[C@@H](CC1CCNCC1)C(=O)NCC(=O)N1[C@H](C(=O)N[C@@H](Cc2ccc(Br)cc2)C(=O)N2CCC[C@H]2C(=O)N[C@H](Cc2ccc(OCc3ccccc3)cc2)C(=O)O)C[C@@H]2CCCC[C@@H]21 [Example 42] ({Malonyl(2,2-Me2,histaminyl)}-Q[dR]PRL[Aib]H[Ala(piperidin-4-yl)]G[Oic][Phe(4-Br)]P[dY](Bn)-OH) | 107 | 0.00794 | 0.0794 | – | –
7 | CC(C)C[C@H](NC(=O)[C@H](CCCNC(=N)N)NC(=O)[C@@H]1CCCN1C(=O)[C@@H](CCCNC(=N)N)NC(=O)[C@H](CCC(N)=O)NC(=O)C(C)(C)C(=O)NCCc1cnc[nH]1)C(=O)NC(C)(C)C(=O)N[C@@H](Cc1c[nH]cn1)C(=O)N[C@@H](CC1CCNCC1)C(=O)NCC(=O)N1[C@H](C(=O)N[C@@H](Cc2ccc(Br)cc2)C(=O)N2CCC[C@H]2C(=O)N[C@H](CC2CCCCC2)C(=O)O)C[C@@H]2CCCC[C@@H]21 [Example 43] ({Malonyl(2,2-Me2,histaminyl)}-Q[dR]PRL[Aib]H[Ala(piperidin-4-yl)]G[Oic][Phe(4-Br)]P[dCha]-OH) | – | – | > 10 | 95.7 | 0.1
8 | CC(C)C[C@H](NC(=O)[C@H](CCCNC(=N)N)NC(=O)[C@@H]1CCCN1C(=O)[C@@H](CCCNC(=N)N)NC(=O)[C@H](CCC(N)=O)NC(=O)C(C)(C)C(=O)NCCc1cnc[nH]1)C(=O)NC(C)(C)C(=O)N(C)[C@@H](Cc1c[nH]cn1)C(=O)N[C@@H](CC1CCNCC1)C(=O)NCC(=O)N1[C@H](C(=O)N[C@@H](Cc2ccc(Br)cc2)C(=O)N2CCC[C@H]2C(=O)N[C@H](Cc2ccc(-c3ccccc3)cc2)C(=O)O)C[C@@H]2CCCC[C@@H]21 [Example 44] ({Malonyl(2,2-Me2,histaminyl)}-Q[dR]PRL[Aib][NMeH][Ala(piperidin-4-yl)]G[Oic][Phe(4-Br)]P[dBip]-OH) | 34.7 | 0.0501 | > 10 | – | –
9 | CC(C)C[C@H](NC(=O)[C@@H](CCCNC(=N)N)NC(=O)[C@@H]1CCCN1C(=O)[C@H](CCCCNC(=N)N)NC(=O)[C@H](CCC(N)=O)NC(=O)C(C)(C)C(=O)NCCc1ccccc1)C(=O)NC(C)(C)C(=O)N[C@@H](Cc1c[nH]cn1)C(=O)N[C@@H](CC1CCNCC1)C(=O)NCC(=O)N1[C@H](C(=O)N[C@@H](Cc2ccc(Br)cc2)C(=O)N2CCC[C@H]2C(=O)N[C@H](Cc2ccc(-c3ccccc3)cc2)C(=O)O)C[C@@H]2CCCC[C@@H]21 [Example 45] (X1-Q[hArg]P[dR]L[Aib]H[Ala(piperidin-4-yl)]G[Oic][Phe(4-Br)]P[dBip]-OH) | 59 | 0.0398 | > 10 | – | –
10 | CC(C)C[C@H](NC(=O)[C@@H](CCCNC(=N)N)NC(=O)[C@@H]1CCCN1C(=O)[C@H](CCCCNC(=N)N)NC(=O)[C@H](CCC(N)=O)NC(=O)C(C)(C)C(=O)NCCc1ccccn1)C(=O)NC(C)(C)C(=O)N[C@@H](Cc1c[nH]cn1)C(=O)N[C@@H](CC1CCNCC1)C(=O)NCC(=O)N1[C@H](C(=O)N[C@@H](Cc2ccc(Br)cc2)C(=O)N2CCC[C@H]2C(=O)N[C@H](Cc2ccc(-c3ccccc3)cc2)C(=O)O)C[C@@H]2CCCC[C@@H]21 [Example 46] (X3-Q[hArg]P[dR]L[Aib]H[Ala(piperidin-4-yl)]G[Oic][Phe(4-Br)]P[dBip]-OH) | 55 | 0.0398 | > 10 | – | –
11 | CC(C)C[C@H](NC(=O)[C@@H](CCCNC(=N)N)NC(=O)[C@@H]1CCCN1C(=O)[C@H](CCCCNC(=N)N)NC(=O)[C@H](CCC(N)=O)NC(=O)C(C)(C)C(=O)NCCc1cnc[nH]1)C(=O)N[C@@H](CO)C(=O)NC(C)(C)C(=O)N[C@@H](CC1CCNCC1)C(=O)NCC(=O)N1[C@H](C(=O)N[C@@H](Cc2ccc(Br)cc2)C(=O)N2CCC[C@H]2C(=O)N[C@H](Cc2ccc(-c3ccccc3)cc2)C(=O)O)C[C@@H]2CCCC[C@@H]21 [Example 47] ({Malonyl(2,2-Me2,histaminyl)}-Q[hArg]P[dR]LS[Aib][Ala(piperidin-4-yl)]G[Oic][Phe(4-Br)]P[dBip]-OH) | 94.2 | 0.0126 | > 1 | – | –
12 | CC(C)C[C@@H](NC(=O)[C@@H](CCCNC(=N)N)NC(=O)[C@@H]1CCCN1C(=O)[C@H](CCCCNC(=N)N)NC(=O)[C@@H](CCC(N)=O)NC(=O)C(C)(C)C(=O)NCCc1cnc[nH]1)C(=O)NC(C)(C)C(=O)N[C@@H](Cc1c[nH]cn1)C(=O)N[C@@H](CC1CCNCC1)C(=O)N[C@H](C)C(=O)N1[C@H](C(=O)N[C@@H](Cc2ccc(Br)cc2)C(=O)N2CCC[C@H]2C(=O)N[C@H](Cc2ccc(-c3ccccc3)cc2)C(=O)O)C[C@@H]2CCCC[C@@H]21 [Example 48] ({Malonyl(2,2-Me2,histaminyl)}-[dQ][hArg]P[dR][dL][Aib]H[Ala(piperidin-4-yl)][dA][Oic][Phe(4-Br)]P[dBip]-OH) | 33.5 | 0.1 | > 10 | – | –
